Data as given in patent US9505774B2, “Polymorphic forms of icotinib maleate and uses thereof” (BETTA PHARMACEUTICALS CO., LTD., priority 2013, dated 2016).
Where a name gives a salt, the structure may show the parent alone.

Experiment: Pharmacokinetic study of Icotinib hydrochloride and Polymorph Form II of Icotinib maleate, oral suspension, plasma by HPLC
Type: in vivo
Conditions: Sprague-Dawley (SD), rat, fasted male SD rats, oral suspension in sodium carboxymethyl cellulose, dose equivalent to 35 mg/kg Icotinib; for AUC(0-t): read-out: AUC(0-24)
Source text: Drugs and reagents: the Icotinib hydrochloride used in this study was of Crystalline Form I disclosed by the WO2010/003313. Polymorph Form II of Icotinib maleate and Icotinib hydrochloride were ground to fine particles. The material content (purity) was not less than 99.0%. Sodium carboxymethyl cellulose was medical supply graded.
Experimental animals: SD rats were divided to an Icotinib hydrochloride group and a Polymorph Form II group, with both groups consisting of males.
Pharmaceutical preparation: the amount of each compound was weighed and then sodium carboxymethyl cellulose was added to result in the test compound's concentration of 0.5%. The solid mixture was then added to prepare a suspension thereof at a final concentration of […] in water.
Administration and sample collection: each suspension was administered orally to fasted SD rats at a dose equivalent to 35 mg/kg Icotinib in a dose volume of 5 ml/kg. 0.4 ml of blood was collected in EDTA-K pre anticoagulant tubes at time intervals of 0.5, 1, 1.5, 2, 4, 6, 8 and 24 hrs after the administration of the test compound, centrifuged at 3000 rpm for 10 minutes, and 120 μl plasma was collected and kept in cold storage.
Samples were analyzed by high performance liquid chromatography. The chromatographic conditions utilized C18-silane bonded silica as stationary phase, 0.02 mol/L of sodium dihydrogen phosphate in acetonitrile (40:60, using sodium hydroxide solution to adjust pH to 5.0) as the mobile phase and a detection wavelength of 334 nm. PK profile comparison of Polymorph Form II of Icotinib maleate and Crystalline Form I of Icotinib hydrochloride was summarized in Table 1 and FIG. 3.

SMILES: C#Cc1cccc(Nc2ncnc3cc4c(cc23)OCCOCCOCCO4)c1.O=C(O)/C=C\C(=O)O [Form II, Icotinib maleate]
- AUC(0-inf): 65400 ng·h/mL
- Cmax: 7530 ng/mL
- Tmax: 5.33 h
- half-life: 3.06 h
- AUC(0-t): 64800 ng·h/mL

SMILES: C#Cc1cccc(Nc2ncnc3cc4c(cc23)OCCOCCOCCO4)c1 [Icotinib hydrochloride]
- AUC(0-inf): 19100 ng·h/mL
- Cmax: 3360 ng/mL
- Tmax: 2.33 h
- half-life: 2.94 h
- AUC(0-t): 19000 ng·h/mL
